Active and inactive are the calls of the source.
Assays:
Cytochrome P450 3A4 = Cytochrome P450 3A4 (Homo sapiens, UniProt P08684);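 also: CYP3A4 tested as one member of a cytochrome P450 panel screen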
H9c2 = test: cells; assay type: functional, cell-based; conditions: Rattus norvegicus, H9c2, Myocardium;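 also: confirmatory concentration-response retest of ultra-high-throughput screening hits for modulation of myocardial damage; cell death induced by hydrogen peroxide oxidative stress; compound pretreatment for 60 min then peroxide exposure for 2 h; potency is for protecting the cells against peroxide damage rather than for killing them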
[1] = Luminescence Cell-Based Dose Response HTS to Identify Inhibitors of 5'UTR Stem-Loop Driven Prion Protein mRNA Translation in H4 Neuroglioblastoma Cells. [Related pubchem assays: 1827 (Project Summary), 1813 (Primary HTS)]; assay type: functional
[2] = luciferase reporter signal suppression in cells – H4 neuroglioma cells, luminescence, dose response (AID 1990); assay type: functional, cell-based
[3] = alpha-synuclein stem-loop luciferase translation blockers – H4 neuroglioma cells, luminescence, confirmation (AID 1988); assay type: functional, cell-based
Cytochrome P450 1A2 = biological target: T1, Cytochrome P450 1A2 (Homo sapiens, UniProt P05177);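 also: PubChem cytochrome P450 panel assay, CYP1A2 panel member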
T1 sequence (P05177 whole entry): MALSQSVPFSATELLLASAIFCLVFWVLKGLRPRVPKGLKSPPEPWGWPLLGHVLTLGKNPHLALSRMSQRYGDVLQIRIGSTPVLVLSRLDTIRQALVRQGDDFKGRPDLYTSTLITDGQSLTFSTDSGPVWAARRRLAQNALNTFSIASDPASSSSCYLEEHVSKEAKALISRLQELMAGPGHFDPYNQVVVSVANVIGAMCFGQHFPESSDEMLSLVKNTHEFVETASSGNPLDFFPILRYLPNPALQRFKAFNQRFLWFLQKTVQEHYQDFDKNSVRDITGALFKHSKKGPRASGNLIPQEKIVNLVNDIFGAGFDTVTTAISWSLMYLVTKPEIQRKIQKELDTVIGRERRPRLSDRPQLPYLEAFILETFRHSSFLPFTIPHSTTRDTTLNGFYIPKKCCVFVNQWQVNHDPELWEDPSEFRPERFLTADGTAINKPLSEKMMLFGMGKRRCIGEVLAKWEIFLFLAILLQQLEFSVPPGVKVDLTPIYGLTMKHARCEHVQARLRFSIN

[4] = NIH-3T3 fibroblast cytotoxicity, dose response, cytotoxicity control, cell-based, fluorescence, Alamar Blue, secondary assay (AID 2327); assay type: functional;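 also: NIH-3T3 mouse fibroblasts cultured with fluconazole at 8 µg/mL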
[5] = P. falciparum Dd2 growth inhibitors, dose response, SYBR Green, cherry-picked samples (AID 1159567); assay type: functional, cell-based
Cytochrome P450 2C19 = Cytochrome P450 2C19 (Homo sapiens, UniProt P33261); test: Cytochrome panel assay with activity outcomes. Panel member name: p450-cyp2c19 Compounds with AC50 equal or less than 10 uM are considered active; assay type: functional; conditions: read-out: AC50
Chain of Cytochrome P450 2C19 (P33261 whole entry): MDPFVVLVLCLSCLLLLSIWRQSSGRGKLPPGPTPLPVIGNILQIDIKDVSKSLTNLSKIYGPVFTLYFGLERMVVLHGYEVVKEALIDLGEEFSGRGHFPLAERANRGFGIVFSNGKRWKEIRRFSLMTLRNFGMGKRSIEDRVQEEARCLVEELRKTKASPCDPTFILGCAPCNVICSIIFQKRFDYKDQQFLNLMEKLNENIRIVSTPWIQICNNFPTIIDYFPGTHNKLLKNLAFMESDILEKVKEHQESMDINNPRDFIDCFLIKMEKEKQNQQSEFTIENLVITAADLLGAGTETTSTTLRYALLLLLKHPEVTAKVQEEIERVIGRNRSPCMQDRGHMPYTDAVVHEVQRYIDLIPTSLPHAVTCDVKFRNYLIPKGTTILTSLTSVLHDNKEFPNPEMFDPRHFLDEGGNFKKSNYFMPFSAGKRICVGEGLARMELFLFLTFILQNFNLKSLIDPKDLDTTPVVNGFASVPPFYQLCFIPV

Cytochrome P450 2C9 = Cytochrome P450 2C9 (Homo sapiens, UniProt P11712)
Chain of Cytochrome P450 2C9 (P11712 whole entry): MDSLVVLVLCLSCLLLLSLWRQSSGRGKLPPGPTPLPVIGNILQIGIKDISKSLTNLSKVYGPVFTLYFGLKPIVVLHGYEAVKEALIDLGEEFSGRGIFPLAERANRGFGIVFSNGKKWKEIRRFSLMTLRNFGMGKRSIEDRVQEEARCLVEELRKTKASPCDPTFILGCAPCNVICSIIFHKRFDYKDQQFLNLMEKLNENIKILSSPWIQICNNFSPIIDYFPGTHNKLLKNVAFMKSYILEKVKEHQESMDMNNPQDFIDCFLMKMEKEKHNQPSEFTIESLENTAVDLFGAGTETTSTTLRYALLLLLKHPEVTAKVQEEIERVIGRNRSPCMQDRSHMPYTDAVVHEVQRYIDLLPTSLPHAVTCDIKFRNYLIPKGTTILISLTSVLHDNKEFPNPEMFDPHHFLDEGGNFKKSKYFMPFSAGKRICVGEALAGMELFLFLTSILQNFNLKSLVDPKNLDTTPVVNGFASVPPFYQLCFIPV

[6] = biological target: T2, Heat shock factor protein 1 (Mus musculus, UniProt P38532); test: decrease of HSF1-responsive luciferase luminescence – cell-based, NIH3T3, dose retest, confirmation (AID 2382); assay type: functional;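 also: NIH3T3 fibroblasts with HSF1-driven luciferase reporter stressed by proteasome inhibitor MG132; luminescence from HSF1-driven luciferase expression after 8 hours of MG132 stress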
T2 sequence (P38532 whole entry): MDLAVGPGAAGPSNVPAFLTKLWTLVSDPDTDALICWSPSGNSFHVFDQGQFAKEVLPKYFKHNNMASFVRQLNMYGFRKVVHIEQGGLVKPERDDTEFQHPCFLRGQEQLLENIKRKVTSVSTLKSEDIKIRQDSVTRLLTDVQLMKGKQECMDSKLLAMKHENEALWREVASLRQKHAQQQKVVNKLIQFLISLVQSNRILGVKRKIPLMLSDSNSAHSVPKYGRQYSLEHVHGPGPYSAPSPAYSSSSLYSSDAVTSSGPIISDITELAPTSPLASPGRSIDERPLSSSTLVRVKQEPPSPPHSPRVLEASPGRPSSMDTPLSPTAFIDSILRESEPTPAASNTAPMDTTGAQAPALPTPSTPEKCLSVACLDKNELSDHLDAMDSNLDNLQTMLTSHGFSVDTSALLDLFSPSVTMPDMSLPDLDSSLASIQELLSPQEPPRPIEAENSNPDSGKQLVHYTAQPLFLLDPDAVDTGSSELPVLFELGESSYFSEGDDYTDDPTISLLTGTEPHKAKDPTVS

[7] = biological target: T3, Corticotropin-releasing factor receptor 2/Corticotropin-releasing factor-binding protein (Homo sapiens, UniProt P24387+Q13324); test: activators of CRF receptor 2 with binding protein – uHTS hits, confirmation (AID 602473); assay type: functional; conditions: read-out: EC50_Mean
T3 sequence (Q13324 whole entry): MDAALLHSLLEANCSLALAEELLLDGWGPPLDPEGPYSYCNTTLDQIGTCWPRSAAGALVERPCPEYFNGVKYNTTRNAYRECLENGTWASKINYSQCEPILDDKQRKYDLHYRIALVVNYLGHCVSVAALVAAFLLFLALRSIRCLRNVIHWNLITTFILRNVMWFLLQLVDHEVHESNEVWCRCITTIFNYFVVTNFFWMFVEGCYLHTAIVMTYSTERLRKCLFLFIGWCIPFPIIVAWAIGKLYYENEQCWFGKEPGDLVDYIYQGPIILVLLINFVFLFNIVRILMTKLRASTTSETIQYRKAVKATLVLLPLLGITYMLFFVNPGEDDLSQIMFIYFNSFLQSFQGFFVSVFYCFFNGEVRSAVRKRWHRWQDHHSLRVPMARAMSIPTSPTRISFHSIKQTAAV
T3 sequence (P24387 whole entry): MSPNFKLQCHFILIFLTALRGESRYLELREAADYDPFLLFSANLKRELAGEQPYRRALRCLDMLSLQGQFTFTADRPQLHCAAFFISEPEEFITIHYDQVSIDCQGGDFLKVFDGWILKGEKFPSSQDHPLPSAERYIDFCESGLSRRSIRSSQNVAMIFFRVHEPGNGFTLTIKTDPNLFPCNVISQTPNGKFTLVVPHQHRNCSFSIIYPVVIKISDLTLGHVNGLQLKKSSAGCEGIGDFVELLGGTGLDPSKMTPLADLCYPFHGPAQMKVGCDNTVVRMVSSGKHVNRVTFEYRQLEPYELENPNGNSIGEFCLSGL

Streptokinase A = biological target: T4, Streptokinase A (Streptococcus pyogenes serotype M1, UniProt P10520); test: viability-normalized secreted streptokinase activity reduction – plasminogen activation absorbance, OD405, dose response (AID 1914); assay type: functional, Streptococcus pyogenes M1 GAS;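 also: secreted streptokinase activity via plasminogen activation per viability signal from cell pellet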
T4 sequence (P10520 whole entry): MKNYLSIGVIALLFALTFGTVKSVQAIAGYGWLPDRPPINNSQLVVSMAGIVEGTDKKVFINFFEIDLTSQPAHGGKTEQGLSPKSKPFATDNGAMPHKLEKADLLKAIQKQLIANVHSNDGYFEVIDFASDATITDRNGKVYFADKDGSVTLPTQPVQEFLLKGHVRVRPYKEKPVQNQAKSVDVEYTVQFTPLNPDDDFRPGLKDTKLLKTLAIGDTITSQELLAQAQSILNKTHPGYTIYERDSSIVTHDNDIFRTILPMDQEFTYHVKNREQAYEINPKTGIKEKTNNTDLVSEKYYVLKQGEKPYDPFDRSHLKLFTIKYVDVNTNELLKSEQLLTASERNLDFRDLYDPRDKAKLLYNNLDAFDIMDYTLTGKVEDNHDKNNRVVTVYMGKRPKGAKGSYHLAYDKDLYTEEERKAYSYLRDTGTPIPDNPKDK

Streptococcus = test: GAS UMAA2166 growth inhibition – luminescence, BacTiterGlo, counter-screen for streptokinase expression inhibitor project, dose response (AID 1915); assay type: functional, organism-based;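 also: potency for reduction of bacterial viability or growth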
[8] = test system: Streptococcus sp. 'group A'; test: Streptococcus pyogenes SK(-)GAS viability under kanamycin – luminescence, BacTiterGlo, confirmation, counter-screen for streptokinase expression inhibitor project, dose response (AID 1900); assay type: functional, organism-based

Chain of Cytochrome P450 3A4 (P08684 whole entry): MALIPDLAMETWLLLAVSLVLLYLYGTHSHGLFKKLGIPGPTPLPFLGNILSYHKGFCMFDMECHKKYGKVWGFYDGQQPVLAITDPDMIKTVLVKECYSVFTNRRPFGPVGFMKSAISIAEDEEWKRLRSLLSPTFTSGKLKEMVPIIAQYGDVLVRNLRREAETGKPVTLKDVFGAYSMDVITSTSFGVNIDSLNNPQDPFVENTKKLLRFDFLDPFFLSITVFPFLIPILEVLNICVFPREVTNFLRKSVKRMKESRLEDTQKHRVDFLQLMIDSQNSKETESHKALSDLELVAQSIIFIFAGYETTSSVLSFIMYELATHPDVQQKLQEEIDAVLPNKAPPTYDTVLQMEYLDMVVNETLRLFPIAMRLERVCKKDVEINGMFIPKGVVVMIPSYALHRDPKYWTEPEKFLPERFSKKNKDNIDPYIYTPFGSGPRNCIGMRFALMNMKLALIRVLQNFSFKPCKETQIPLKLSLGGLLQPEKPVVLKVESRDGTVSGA

Cc1ccc(CS(=O)(=O)CCC(=O)NCc2ccccn2)cc1
AC50 (Cytochrome P450 3A4): 31.6 µM (inconclusive)

COc1ccc(CC(=O)N/N=C(\C)c2ccccn2)cc1
IC50 (H9c2): > 79 µM (inactive)
EC50 [1]: 9.61 µM (active)
EC50 [2]: 10.9 µM (active)
EC50 [3]: 9.41 µM (active)

COc1ccc(CNC(=O)c2coc(=O)c3ccccc23)c(OC)c1
EC50 [1]: > 120 µM (not active)
EC50 [2]: > 120 µM (not active)
EC50 [3]: > 120 µM (not active)

CN(C)c1ccc(C(c2ccc(N(C)C)cc2)c2ccc([N+](=O)[O-])cc2)cc1
AC50 (Cytochrome P450 1A2): 3.16 µM (inconclusive)
AC50 (Cytochrome P450 3A4): 2 µM (inconclusive)

CC(=O)NC/C(C)=N\Nc1ccc([N+](=O)[O-])cc1
EC50 [4]: 33.9 µM (active)

Cc1noc(C)c1S(=O)(=O)N(C)C[C@H]1OCc2ccccc2-c2c(n(C)c3ccccc23)C(=O)N([C@@H](C)CO)C[C@H]1C
AC50 [5]: 4.65 µM (active)

O=C(Cn1cccc1)NC1CCCCCC1
AC50 (Cytochrome P450 3A4): 17.8 µM (inconclusive)
AC50 (Cytochrome P450 2C19): 6.31 µM (inconclusive)

CCOc1cc(CNc2ccc3c(c2)OCCO3)cc(Br)c1OC
EC50 [1]: 10.7 µM (active)
EC50 [2]: > 60 µM (inconclusive)

CCCCSc1nc(C)cc(C)c1S(=O)(=O)c1ccccc1C
AC50 (Cytochrome P450 2C9): 10 µM (inconclusive)
AC50 (Cytochrome P450 3A4): 28.2 µM (inconclusive)

CO[C@H]1COC(=O)[C@@H](C)COC(=O)[C@@H](Cc2ccccc2)NC(=O)C/C=C\[C@H]1C
AC50 (Cytochrome P450 3A4): 6.31 µM (inconclusive)

CC(C)[C@@H](C(=O)N1CCCC1)N1C(=O)N2CCc3c([nH]c4ccccc34)[C@@]2(C)C1=O
EC50 [1]: > 120 µM (not active)
EC50 [2]: > 120 µM (not active)
EC50 [3]: > 120 µM (not active)

CC1(C)CC(=O)C(CCC(=O)c2ccccc2)C(C)(C)N1 (stereo not given)
EC50 [6]: > 195 µM (not active)
AC50 (Cytochrome P450 3A4): 12.6 µM (inconclusive)
AC50 (Cytochrome P450 2C19): 28.2 µM (inconclusive)

CCCn1c(=O)c2[nH]c(-c3ccccc3)nc2n(CCC)c1=O
AC50 (Cytochrome P450 2C9): 1.58 µM (inconclusive)
AC50 (Cytochrome P450 3A4): 2.51 µM (inconclusive)
AC50 (Cytochrome P450 2C19): 10 µM (inconclusive)

CSc1n[nH]c(-c2sccc2OCc2ccc(C)cc2)n1
AC50 (Cytochrome P450 3A4): 20 µM (inconclusive)

CN(C)c1oc(-c2ccccc2Cl)nc1C#N
EC50 [1]: 19.6 µM (active)
EC50 [2]: > 120 µM (not active)
EC50 [3]: 33.3 µM (active)

Brc1ccc(/C=C/C=N/Nc2nc3ccccc3s2)cc1
AC50 (Cytochrome P450 2C9): 7.08 µM (inconclusive)
EC50 [4]: 89.4 µM (inconclusive)

O=C(N/N=C/c1ccco1)/C(=C/c1cccc([N+](=O)[O-])c1)NC(=O)c1ccccc1
AC50 (Cytochrome P450 3A4): 1.12 µM (inconclusive)
AC50 (Cytochrome P450 2C19): 1 µM (inconclusive)

C=CCSc1nnc(C)c(/C=C/Nc2ccc(Cl)cc2)n1
EC50 [7]: 4.77 µM (active)

COc1cccc(CNC(=O)c2cc3c(c(-c4cccc(-c5ccncc5)c4)n2)[C@H](CCO)N([S@@+]([O-])C(C)(C)C)C3)c1
AC50 [5]: 4.29 µM (active)

CCOC(=O)N1CCN(C(=O)c2cnc3ccc(S(=O)(=O)N(C)c4cccc(C)c4)cc3c2O)CC1
EC50 [7]: 3.84 µM (active)

COc1ccc(CNc2nc(-c3ccc(C(=O)N(C)C)cc3)nc3ccccc23)c(OC)c1
AC50 (Cytochrome P450 2C9): 1 µM (inconclusive)
AC50 (Cytochrome P450 3A4): 3.98 µM (inconclusive)

CCOc1cc(/C=C/c2ccc3cccc([N+](=O)[O-])c3n2)ccc1OCC(=O)N(C)C
IC50 (H9c2): 10.7 µM (active)

Cc1ccc(CSC(=N)Nc2ccccc2)cc1C
AC50 (Cytochrome P450 3A4): 3.16 µM (inconclusive)

CCOC(=O)c1[nH]c2cc(OC)c(OC)cc2c1NC(=O)C(C)N1CCN(Cc2ccccc2)CC1 (stereo not given)
IC50 (H9c2): 10.2 µM (active)

COc1cc2c(cc1OC)CN(c1nc(-c3cccnc3)nc3ccccc13)CC2
IC50 (H9c2): > 79 µM (inactive)

Cc1ccc(C)c(C(=O)Nc2cc(C)nn2-c2nc(C)cc(C)n2)c1
EC50 [6]: > 195 µM (not active)
IC50 (H9c2): > 79 µM (inactive)

Cc1cc(C)nc(SCc2ccc(C(=O)N/N=C/c3ccccn3)cc2)n1
IC50 (H9c2): > 79 µM (inactive)

Cc1c(C(=O)Nc2ccc3nc(N4CCOCC4)sc3c2)oc2ccccc12
IC50 (H9c2): > 79 µM (inactive)

CC(C)n1c(=O)c2c(=O)cc(O)oc2c2ccccc21
EC50 (Streptokinase A): > 150 µM (not active)
EC50 (Streptococcus): > 150 µM (not active)
EC50 [8]: 27.8 µM (active)
AC50 (Cytochrome P450 3A4): 2.51 µM (inconclusive)
AC50 (Cytochrome P450 2C19): 10 µM (inconclusive)

COc1ccc(-c2oc3ncn(CCN4CCOCC4)c(=N)c3c2-c2ccc(OC)cc2)cc1
EC50 [1]: 19.6 µM (active)
EC50 [2]: 8.99 µM (active)
EC50 [3]: 14.5 µM (active)

O=C1C2C3C=CC([C@@H]2C(=O)N1C1CCCCC1)[C@H]1C(=O)N(C2CCCCC2)C(=O)C31 (stereo not given in full)
AC50 (Cytochrome P450 2C9): 6.31 µM (inconclusive)
AC50 (Cytochrome P450 3A4): 3.55 µM (inconclusive)
AC50 (Cytochrome P450 2C19): 17.8 µM (inconclusive)

From ChEMBL document CHEMBL1201862, “PubChem BioAssay data set” (2004)
